Results as given in patent US20230321033A1, “THIOPHEN COMPOUNDS FOR USE IN THE TREATMENT OF RENAL FIBROSIS” (ENYO PHARMA, priority 2020, published 2023).
Entries after “also recorded” stand apart in the source; their conditions may differ.

What was measured:
[1] = tested on: kidneys of NASH mice (AMLN diet); experiment: Renal fibrosis in NASH mouse model, picrosirius red (PSR) staining of kidneys; assay type: in vivo; settings: mice on AMLN diet 30 weeks, then PO treatment 8 weeks twice a day, 7 or 20 mg/kg; kidneys at sacrifice
Experimental: (§1) Compound #157 was evaluated in a mouse model of NASH. Mice were fed with an AMLN diet (high in fat (40%), fructose (22%) and cholesterol (2%)) for 30 weeks prior treatment with Compound #157 for 8 weeks twice a day at a dose of 7 or 20 mg/kg.
(§2) The livers and kidneys were collected at sacrifice. Fibrosis, in particular tubulointerstitial fibrosis, has been evaluated by quantification of the picrosirius red (PSR) staining positive areas. Inflammation has been quantified on CD3 stained sections.

[2] = tested on: kidneys of NASH mice (AMLN diet); experiment: Renal inflammation in NASH mouse model, CD3 stained kidney sections; assay type: in vivo; settings: mice on AMLN diet 30 weeks, then PO treatment 8 weeks twice a day, 7 or 20 mg/kg; kidneys at sacrifice
Experimental: as §1, §2

Structure (SMILES): O=C(Nc1scc(C2CCc3ccccc3C2)c1C(=O)O)c1ccccc1 (stereo not drawn) [Compound #157]
- renal fibrosis (tubulointerstitial), quantification of picrosirius red (PSR) staining positive areas [1]: completely resolve fibrosis; also recorded: significantly decreases renal fibrosis
- decrease of renal inflammation (CD3 stained sections) [2]: 50%
- renal inflammation (lymphocytes infiltration), quantified on CD3 stained sections [2]: attenuate significantly inflammation; also recorded: significantly decreases renal inflammation
